Laboratory results reported in US4839353A, “Anti-ulcer substituted pyridine derivatives” (Banyu Pharmaceutical Co., Ltd., priority 1986, dated 1989).
Structures can show the parent of a compound that is named as a salt.

What was measured:
H^+,K^+ -ATPase = target: T1, H^+,K^+ -ATPase (Oryctolagus cuniculus, UniProt P27112); assay: Inhibitory effects on the activity of H^+,K^+ -ATPase; type: biochemical; conditions: H^+,K^+ -ATPase-containing light membrane fractions from rabbit gastric glands; read-out: 50% Enzyme inhibitory concentration (IC50)
T1 construct: Rabbit gastric glands were homogenized and microsomal fractions were prepared; from tissue; host or cells: rabbit gastric glands, light microsomal membrane fraction
Procedure: (1) Inhibitory effects on the activity of H^+,K^+ -ATPase Rabbit gastric glands were homogenized and microsomal fractions were prepared by differential centrifugation of the resultant homogenate. The microsomal fractions were layered on 37% sucrose and centrifuged to obtain light membrane fractions containing H^+,K^+ -ATPase. Using the H^+,K^+ -ATPase-containing fractions, the effects of the compounds of this invention and omeprazole on the activity of H^+,K^+ -ATPase were examined. The inhibitory activities of the compounds of this invention on H^+,K^+ -ATPase measured by the above method are shown in Table I.

gastric acid secretion = assay: Gastric acid antisecretory activity (histamine-enhanced gastric acid secretion in anesthetized rats); type: in vivo; conditions: Rattus norvegicus, iv, 1.25 h; male Doryu rats, urethane anesthesia, histamine infusion 2 mg/kg/hr, test compound via jugular vein 75 min after start of infusion; read-out: Gastric acid antisecretory activity 50% Effective dose (ED50, mg/kg)
Procedure: (2) Gastric acid antisecretory activity The method of preparation was based on the technique of Osumi et al. (see "Life Science" 20, 1407, 1977). Male Doryu rats weighing about 250 g were deprived of food for 24 hours but were allowed free access to water before experiments. […] The esophagus was ligated, and bilateral vagus nerves were carefully separated and cut at the cervical portion. The abdomen was opened by a midoline incinion, and a polyethylene cannula (about 3.5 cm in length and 0.4 cm in diameter) was inserted into the stomach via an incision in the duodenum. After washout of the stomach with saline, 2.0 ml of fresh saline prewarmed at 38° C. was instilled and replaced with fresh solution at 15 min intervals. Several successive collections of basal acid secretion were made to confirm the steady level of secretion. After these collections, gastric acid secretion was enhanced by infusion of histamine. Gastric acid secretion was determined as follows: the total value of gastric solution recovered from the stomach every 15 min was titrated to pH 7.0 with 0.1N NaOH, using an automatic titrator (Radiometer, Copenhage, Denmark). Acid output secreted for 15 min were calculated as microequivalents per 15 min. […] From the acid output in a control group measured at the time when the acid output secreted was lowest, the acid secretion inhibitory ratio (R) was calculated in accordance with the following equation. [formula] wherein V° is the acid output produced when the animals were not treated with the test compounds (control), and V is the acid output acid produced when the test compounds were administered to the animals. Furthermore, from correlation line between the dose and the inhibitory ratio at the dose by using the method of least squares, the 50% inhibitory dose was determined.

[1] = system: gastric ulcer induced by ethanol-hydrochloric acid; assay: Effect of preventing gastric ulcer induced by ethanol-hydrochloric acid; type: in vivo; conditions: SD-strain male rats, oral, 30 min before 0.2N hydrochloric acid-50% ethanol (1 ml/rat); length of bleeding erosions; read-out: 50% Effective dose (ED50, mg/kg)
Procedure: (3) Effect of preventing gastric ulcer induced by ethanol-hydrochloric acid According to the method of Robert et al. (see "Gastroenterology" 77, 433-443 (1979), SD-strain rats (male, weighing 200 to 220 g, 8 rats in each group) were deprived of food for 24 hours and of water for 19 hours. Each of the test compounds was suspended in 0.5% carboxymethyl cellulose, and orally administered to the rats. Thirty minutes after administration, 0.2N hydrochloric acid-50% ethanol (1 ml/rat) was orally administered. One hour after the administration of ethanol-hydrochloric acid, the rats were killed. The stomachs were dissected out, and the lower part of the esophagus was nipped with a clip. Aqueous 1% formalin solution (12.0 ml) was poured into the stomachs from the duodenum and then the duodenum part was nipped with a clip. The whole stomachs were immersed in aqueous 1% formalin for about 10 minutes for fixation. The stomachs were opened along the greater curvature and then rinsed with water. The gastric mucosa was examined and the lengths of bleeding erosions which occurred in the glandular stomach were measured in mm under an anatomic microscope. From the test results obtained by the above method, the ED50 (50% effective dose) of each of the test compounds was calculated.

T1 sequence (P27112 2-1035 limits assumed): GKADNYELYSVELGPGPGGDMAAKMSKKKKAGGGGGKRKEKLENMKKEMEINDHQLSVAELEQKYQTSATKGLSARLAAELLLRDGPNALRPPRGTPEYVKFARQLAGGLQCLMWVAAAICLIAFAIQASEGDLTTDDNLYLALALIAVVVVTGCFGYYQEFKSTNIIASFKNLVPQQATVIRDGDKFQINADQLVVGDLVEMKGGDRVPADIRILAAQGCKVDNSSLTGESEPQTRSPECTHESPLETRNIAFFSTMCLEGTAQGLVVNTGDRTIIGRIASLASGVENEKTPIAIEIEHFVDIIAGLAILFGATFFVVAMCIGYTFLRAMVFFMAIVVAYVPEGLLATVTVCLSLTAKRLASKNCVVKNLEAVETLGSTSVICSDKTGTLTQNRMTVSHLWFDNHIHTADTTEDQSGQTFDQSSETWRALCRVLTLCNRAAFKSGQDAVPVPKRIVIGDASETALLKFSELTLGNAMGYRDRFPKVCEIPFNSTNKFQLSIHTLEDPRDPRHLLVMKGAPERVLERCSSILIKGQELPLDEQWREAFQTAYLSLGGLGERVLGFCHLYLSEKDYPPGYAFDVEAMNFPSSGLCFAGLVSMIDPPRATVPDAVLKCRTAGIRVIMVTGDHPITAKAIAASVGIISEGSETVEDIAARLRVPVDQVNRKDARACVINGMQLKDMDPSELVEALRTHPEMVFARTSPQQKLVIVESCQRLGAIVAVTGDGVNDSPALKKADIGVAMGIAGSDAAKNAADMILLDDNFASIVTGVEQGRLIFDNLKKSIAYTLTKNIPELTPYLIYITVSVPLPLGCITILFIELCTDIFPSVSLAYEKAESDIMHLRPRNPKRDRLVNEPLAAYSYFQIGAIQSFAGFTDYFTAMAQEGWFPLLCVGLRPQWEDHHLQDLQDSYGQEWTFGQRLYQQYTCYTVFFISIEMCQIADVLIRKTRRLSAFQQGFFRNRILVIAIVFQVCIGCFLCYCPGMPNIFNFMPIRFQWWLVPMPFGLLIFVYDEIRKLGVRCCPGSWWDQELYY
T1 sequence (P18597 whole entry partner): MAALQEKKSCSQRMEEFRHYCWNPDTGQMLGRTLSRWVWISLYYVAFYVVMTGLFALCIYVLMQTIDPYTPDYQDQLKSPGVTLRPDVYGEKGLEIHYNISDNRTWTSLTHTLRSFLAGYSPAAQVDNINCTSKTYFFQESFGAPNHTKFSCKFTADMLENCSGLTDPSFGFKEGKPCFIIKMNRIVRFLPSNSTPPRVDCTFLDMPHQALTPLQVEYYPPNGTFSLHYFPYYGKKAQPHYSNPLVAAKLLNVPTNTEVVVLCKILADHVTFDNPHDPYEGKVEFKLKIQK

SMILES | IC50 (H^+,K^+ -ATPase) | ED50 (gastric acid secretion) | ED50 [1]
Cc1cnc(CCc2cccc3ccccc23)cc1N1CCC(C)CC1.Cl [Test compound 21, 5-methyl-4-(4-methylpiperidino)-2-[2-(1-naphthyl)ethyl]pyridine hydrochloride] | 2.7 µM | 0.78 mg/kg | 
Cc1cnc(/C=C\c2ccc(Cl)c3ccccc23)cc1N1CCCCC1.Cl [Test compound 8, (Z)-2-[2-(4-chloro-1-naphthyl)vinyl]-5-methyl-4-piperidinopyridine hydrochloride] | 4.8 µM | 2.78 mg/kg | 
Cc1cnc(/C=C\c2cccc3c(C)cccc23)cc1N1CCCCC1 [Test compound 10, (Z)-2-[2-(5-methyl-1-naphthyl)vinyl]-5-methyl-4-piperidinopyridine hydrochloride] | 6 µM |  | 
Cc1cnc(CSc2ccccc2)cc1N1CCCCC1.Cl [Test compound 5, 5-methyl-2-phenylthiomethyl-4-piperidinopyridine hydrochloride] | 16 µM |  | 9.2 mg/kg
Cc1cnc(COc2ccccc2)cc1N1CCCCC1.Cl [Test compound 1, 5-methyl-2-phenoxymethyl-4-piperidinopyridine hydrochloride] | 8.4 µM |  | 12.1 mg/kg
Cc1cnc(CSc2ccc3ccccc3c2)cc1N1CCCCC1.Cl [Test compound 6, 5-methyl-2-[(2-naphthyl)thiomethyl]-4-piperidinopyridine hydrochloride] | 9 µM |  | 7.3 mg/kg
Cc1cnc(CCc2ccccc2)cc1N1CCCCC1.Cl [Test compound 27, 5-methyl-2-phenethyl-4-piperidinopyridine hydrochloride] |  |  | 5.4 mg/kg
Cc1cnc(/C=C/c2ccc3ccccc3c2)cc1N1CCCCC1 [Test compound 17, (E)-5-methyl-2-[2-(2-naphthyl)vinyl]-4-piperidinopyridine hydrochloride] | 4.3 µM |  | 
Cc1cnc(/C=C\c2cccc3ccccc23)cc1N1CCC(C)CC1.Cl [Test compound 14, (Z)-5-methyl-4-(4-methylpiperidino)-2-[2-(1-naphthyl)vinyl]pyridine hydrochloride] | 2.8 µM | 1.09 mg/kg | 
Cc1cnc(/C=C\c2cccc3cccc(C)c23)cc1N1CCCCC1 [Test compound 11, (Z)-2-[2-(8-methyl-1-naphthyl)vinyl]-5-methyl-4-piperidinopyridine] | 2.3 µM | 0.92 mg/kg | 
Cc1ccc2cc(/C=C\c3cc(N4CCCCC4)c(C)cn3)ccc2c1 [Test compound 19, (Z)-5-methyl-2-[2-(6-methyl-2-naphthyl)-vinyl]-4-piperidinopyridine] | 7.8 µM |  | 
Cc1cnc(CCc2cccc3ccccc23)cc1N1CCCCC1 [Test compound 22, 5-methyl-2-[2-(1-naphthyl)ethy]-4-piperidinopyridine hydrochloride] | 3.6 µM | 2.5 mg/kg | 5.4 mg/kg
Cc1cnc(/C=C\c2ccc3ccccc3c2)cc1N1CCCCC1 [Test compound 18, (Z)-5-methyl-2-[2-(2-naphthyl)vinyl]-4-piperidinopyridine hydrochloride] | 8.4 µM |  | 
C(=C/c1cnccc1N1CCCCC1)/c1ccc2ccccc2c1 [Test compound 16, (Z)-3-[2-(2-naphthyl)vinyl]-4-piperidinopyridine] | 2.6 µM |  | 
Cc1cnc(/C=C\c2cccc(Cl)c2Cl)cc1N1CCCCC1 [Test compound 20, (Z)-2-[2-(2,3-dichlorophenyl)vinyl]-5-methyl-4-piperidinopyridine hydrochloride] | 4.6 µM |  | 

More lines, main results first:

IC50 (H^+,K^+ -ATPase) | SMILES | ED50 (gastric acid secretion) | ED50 [1]
4.1 µM | CCC(C)c1ccc(OCc2cc(N3CCCCC3)c(C)cn2)cc1 (stereo not drawn) [compound 3] |  | 
3.5 µM | Cc1cnc(/C=C\c2cccc3ccccc23)cc1OC1CCCCC1 [compound 12] | 1.35 mg/kg | 
6 µM | Cc1cnc(CCc2cccc3cccc(C)c23)cc1N1CCCCC1.Cl [Test compound 24, 5-methyl-2-[2-(8-methyl-1-naphthyl)-ethyl]-4-piperidinopyridine hydrochloride] | 2.72 mg/kg | 
1.7 µM | Cc1cnc(/C=C\c2cccc3ccccc23)cc1N1CCCC(C)C1 (stereo not drawn) [compound 15] | 0.99 mg/kg | 
2.2 µM | Cc1cnc(/C=C\c2cccc3ccccc23)cc1N1CCCCC1 [compound 7] | 1.16 mg/kg | 
3.5 µM | Cc1cnc(COc2ccc(C(C)(C)C)cc2)cc1N1CCCCC1 [compound 2] |  | 
0.78 µM | Cc1cnc(/C=C\c2cccc3ccccc23)cc1N1CCCCCC1 [compound 13] | 0.9 mg/kg | 
2.6 µM | Cc1cnc(CCc2cccc3ccccc23)cc1OC1CCCCC1.Cl [Test compound 25, 4-cyclohexyloxy-5-methyl-2-[2-(1-naphthyl)ethyl]pyridine hydrochloride] | 0.91 mg/kg | 
6.2 µM | COc1ccc2[nH]c([S+]([O-])Cc3ncc(C)c(OC)c3C)nc2c1 (stereo not drawn) [omeprazole, reference compound] |  | 34.1 mg/kg
4.6 µM | Cc1cnc(CCc2ccc(C)c3ccccc23)cc1N1CCCCC1 [Test compound 23, 5-methyl-2-[2-(4-methyl-1-naphthyl)-ethyl]-4-piperidinopyridine hydrochloride] |  | 
1.7 µM | Cc1cnc(CCc2cccc3ccccc23)cc1N1CCCC(C)C1.Cl (stereo not drawn) [Test compound 26, 5-methyl-4-(3-methylpiperidino)-2-[2-(1-naphthyl)ethyl]pyridine hydrochloride] | 0.91 mg/kg | 
3 µM | Cc1cnc(CCc2ccc3ccccc3c2)cc1N1CCCCC1.Cl [Test compound 28, 5-methyl-2-[2-(2-naphthyl)ethyl]-4-piperidinopyridine hydrochloride] |  | 3.6 mg/kg
3.8 µM | Cc1cnc(COc2ccc(C3CCCCC3)cc2)cc1N1CCCCC1 [compound 4] |  | 
5.9 µM | Cc1cnc(/C=C\c2ccc(F)c3ccccc23)cc1N1CCCCC1 [compound 9] |  | 
2.3 µM | Cc1ccc2cc(CCc3cc(N4CCCCC4)c(C)cn3)ccc2c1 [Test compound 29, 5-methyl-2-[2-(6-methyl-2-naphthyl)-ethyl]-4-piperidinopyridine hydrochloride] |  | 
